From patent US10214495B2, “Anti-malarial agents” (MMV MEDICINES FOR MALARIA VENTURE, priority 2015, dated 2019)
Converted amounts (≈) assume the structure as drawn. Like-named read-outs stand apart in the source and are kept apart here.

Experiments:
P. falciparum NF54 = assay: In vitro P. falciparum growth inhibition, sensitive NF54 strain; assay type: cell-based; settings: Plasmodium falciparum, read-out: P. fal. NF54 IC50
Method: (§1) The ability of aminopyrazine derivatives according to the invention to kill P. falciparum parasites and/or to inhibit its proliferation is assayed through their ability to inhibit Plasmodium falciparum growth. Compounds were screened against multidrug resistant (K1) and sensitive (NF54) strains of P. falciparum in vitro as described by Vennerstrom et al. 2004, Nature, 430, 900-904.

P. falciparum K1 = assay: In vitro P. falciparum growth inhibition, multidrug resistant K1 strain; assay type: cell-based; settings: Plasmodium falciparum, read-out: P. fal K1 IC50
Method: as §1

hPI4KB = hPI4KB (Homo sapiens, UniProt Q9UBF8); assay: PI4KB lipid kinase ADP-Glo assay; assay type: biochemical; settings: ATP 10 μM, PI substrate 50 μM
hPI4KB, sequence (Q9UBF8 whole entry): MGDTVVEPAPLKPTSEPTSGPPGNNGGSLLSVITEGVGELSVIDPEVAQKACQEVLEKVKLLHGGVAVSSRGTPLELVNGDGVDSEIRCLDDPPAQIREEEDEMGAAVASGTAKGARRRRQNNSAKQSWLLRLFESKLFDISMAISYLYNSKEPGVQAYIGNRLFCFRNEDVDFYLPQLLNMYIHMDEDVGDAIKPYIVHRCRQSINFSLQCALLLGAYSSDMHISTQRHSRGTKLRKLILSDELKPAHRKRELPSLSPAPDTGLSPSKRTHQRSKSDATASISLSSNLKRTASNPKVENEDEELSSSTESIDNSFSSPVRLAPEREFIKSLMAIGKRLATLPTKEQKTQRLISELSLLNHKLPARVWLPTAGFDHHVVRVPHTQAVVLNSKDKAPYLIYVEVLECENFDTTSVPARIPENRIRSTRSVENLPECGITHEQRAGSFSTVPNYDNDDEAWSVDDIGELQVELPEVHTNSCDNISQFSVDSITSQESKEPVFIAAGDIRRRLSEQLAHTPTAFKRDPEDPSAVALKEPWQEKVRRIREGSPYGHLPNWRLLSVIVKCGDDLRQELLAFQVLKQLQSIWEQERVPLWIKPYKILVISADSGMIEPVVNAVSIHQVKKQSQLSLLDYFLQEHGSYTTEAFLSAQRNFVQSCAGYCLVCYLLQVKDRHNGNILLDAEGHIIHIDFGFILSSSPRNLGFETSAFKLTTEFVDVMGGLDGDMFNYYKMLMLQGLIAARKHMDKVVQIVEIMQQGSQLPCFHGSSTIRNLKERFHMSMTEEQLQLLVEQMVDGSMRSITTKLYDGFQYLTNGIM
Method: The compounds of the invention were tested on their ability to inhibit the human PI4K kinase. The non-radiometric ADP-Glo™ Assay (Promega, Madison, Wis., USA) was used for measuring the activity of the PI4KB lipid kinase. All kinase assays were performed in 96-well half-area microtiter plates from Greiner Bio-One (Frickenhausen, Germany) in a 25 μl reaction volume. The reaction cocktail was pipetted in 3 steps in the following order:
10 μl of ATP solution (in assay buffer, see below)
5 μl of test sample in 10% DMSO
10 μl of enzyme/substrate mixture
PI4KB assay contained 50 mM HEPES-NaOH, pH 7.5, 1 mM EGTA, 100 mM NaCl, 0.03% CHAPS, 2 mM DTT, ATP, 10 μM, PI4KB kinase, 20 ng/25 μL, PI substrate 50 μM. and3 mM MnCl2.
The reaction cocktails were incubated at 30° C. for 40 minutes. The reaction was stopped with 25 μl ADP-Glo reagent per well. Plates were incubated for 40 minutes at room temperature, followed by addition of 50 μl kinase detection reagent per well and incubation for further 60 minutes at room temperature. Signal was measured with a microplate multilable reader (Victor2, Perkin Elmer, Boston, Mass., USA), in luminescence mode.
All assays were performed with a BeckmanCoulter Biomek 2000/SL robotic system. The median value of the counts (n=8) of each assay plate was defined as “low control”. This value reflects unspecific binding of radioactivity to the plate in the absence of a protein kinase but in the presence of the substrate. […]
As part of the data evaluation the low control value from a particular plate was subtracted from the high control value as well as from all 80 “compound values” of the corresponding plate. The residual activity (in %) for each well of a particular plate was calculated by using the following formula (i): Res. Activity (%)=100×[(cpm of compound−low control)/(high control−low control)] […]
The residual activities for each concentration and the compound IC50 values were calculated using Quattro Workflow V3.1.0 (Quattro Research GmbH, Munich, Germany; www.quattro-research.com). […]

[1] = Kinetic solubility by HPLC; assay type: physicochemical; settings: kinetic from dmso stock, room temperature
Method: Dilutions were prepared to a theoretical concentration of 200 μM (n=2) in phosphate buffered saline (PBS) pH 6.5 (in 2% DMSO), in 0.01 M HCl pH 2 (in 2% DMSO) and in biologically relevant gastrointestinal media, fasted state simulated intestinal fluid, FaSSIF (in 2% DMSO). Calibration curves (11-220 μM) were prepared in DMSO. All dilutions were equilibrated at room temperature and mixed for 2 hours on an orbital shaker. The concentration of the test compounds was determined by HPLC using a Kinetex C18 column (2.1 mm×50 mm, 2.6 μm) at a column temperature of 35° C. An injection volume of 5 μL was used with a mobile phase flow rate of 0.6 mL/min. The mobile phase gradient method was as follows in Table 1: […]
Mobile phase A: 0.1% formic acid in 5% acetonitrile/water (v/v) (pH 3.1)
Mobile phase B: 0.1% formic acid in acetonitrile (pH 3.1)
Compound concentration (x) in the PBS/FASSIF/HC1 samples was calculated from the peak area (y) in the UV chromatogram by extrapolation from a three point calibration curve using the relationship: y=ax+b, where a is the slope and b is the intercept. Solubility was reported in the range <5-220 μM.

[2] = Pharmacokinetics in rats (iv and oral); assay type: in vivo; settings: rat; for Apparent T1/2 / Plasma Cl / Vd: 5.0 mg/kg iv
Method: Compounds of the invention were tested for their pharmacokinetics in rats according to the protocol below. Two different formulations were used to dose the compound of the invention as described in Table 3 below
Compound (1) was prepared for administration immediately prior to the experiment. The dose was prepared according to the average weight of the animals and an assumed volume of 350 μL of vehicle (IV) or 1000 μL of vehicle (oral). Volumes were adjusted io for each animal's individual weight to dose the compound at 5 mg/kg for the IV group (n=3 rats) and 20 mg/kg to the oral group (n=3). Water was supplied ad libitum, but animals were starved for 12 hours prior to dosing. Food was reinstated 5 hours post-dose.
The orally-treated animals were dosed by gavage with the drug introduced as a bolus. The IV-treated animals were anaesthetized and the drug was administered by infusion over a period of 2 minutes. Doses were staggered to allow for accurately timed sampling. Blood was collected at predetermined time-points to evaluate the kinetic profile over 24-48 hours. Blood sampling schedule, measured in hours post-dose, for the two groups of rats after the administration of Compound (1) are presented in Table 4 below:
Whole blood was collected via the tail vein into heparinised microcentrifugation tubes and stored on ice. Within 60 minutes of collection, samples were transferred to a freezer and stored at −80 ° C. until analysis was carried out via LC/MS/MS.
The extraction process was carried out on ice. To extract the drug for analysis, 30 μL of whole blood from each sample as well as from a series of standards and quality controls was transferred to a 96-well plate. A volume of 90 μL of cold methanol containing a suitable internal standard (approx. 60 ng/mL was added to each well and the plate was sealed and vortexed vigorously for 60 seconds to precipitate the proteins and release the compounds into the solvent). These were then centrifuged at 10000 G for 10 minutes to pellet the proteins and cellular debris, and the supernatant was transferred to a duplicate 96-well plate. The plate was transferred to the LC/MS/MS and held at 4° C. until all samples were injected onto the column.
LC/MS/MS analysis was carried out with 5 μL of each sample, using a method which was developed for simultaneous detection of compound (1) and the internal standard using a Phenomenex Hydro-RP column at 20° C. The mobile phase utilized acetonitrile containing 0.1% formic acid (v/v) as the organic component, and 0.1% (v/v) formic acid in water as the aqueous component. The mobile phase ran as a gradient at 400 μL/min, with the organic component increasing from 5% to 95% over 4 minutes before re-equilibration. The assay was calibrated over the range 2-6250 ng/mL (0.0056 μM-17.44 μM).

[3] = FaSSIF pH 6.5, 2% DMSO, read-out: Kinetic Solubility Fassif pH6.5
[4] = phosphate buffered saline, aqueous buffer, PBS pH 6.5, 2% DMSO, read-out: Kinetic Solubility pH 6.5
[5] = 20.0 mg/kg po vs 5.0 mg/kg iv (Reference 1 column prints iv)

Row | SMILES | IC50 (P. falciparum NF54) | IC50 (P. falciparum K1) | IC50 (hPI4KB) | solubility kinetic at 2 h [1, 3] | solubility kinetic at 2 h [1, 4] | Apparent T1/2 [2] | Plasma Cl [2] | Vd [2] | Oral Bioavailability ([2]; […] po vs 5.0 mg/kg iv) | Oral Bioavailability [2, 5]
1 | Nc1ncc(-c2ccc(C(=O)O)cc2)nc1-c1ccc(C(F)(F)F)cc1 [Compound (1), 4-(5-amino-6-(4-(trifluoromethyl)phenyl)pyrazin-2-yl)benzoic acid] | 33 nM | 32 nM | 7700 nM | 178 µM (≈ 64 µg/mL) | 180 µM (≈ 64.7 µg/mL) | 4.9 h | 10.1 mL/min/kg | 4.3 L/kg | 94% | 
2 | NC(=O)c1ccc(-c2cnc(N)c(-c3ccc(C(F)(F)F)cc3)n2)cc1 [Reference 1, reference compound] | 13 nM | 14 nM | 5000 nM | 115 µM (≈ 41.2 µg/mL) | < 5 µM | 1.0 h | 39 mL/min/kg | 3.5 L/kg |  | 25%
3 | Nc1ncc(-c2ccc(C(=O)O)cc2)nc1-c1ccc(C(F)(F)F)nc1 [Compound (2), 4-(5-amino-6-(6-(trifluoromethyl)pyridin-3-yl)pyrazin-2-yl)benzoic acid] | 26 nM | 24 nM | 23000 nM | 199 µM (≈ 71.7 µg/mL) | 187 µM (≈ 67.4 µg/mL) | 4.4 h | 16.7 mL/min/kg | 6.4 L/kg |  | 38%
